Data set [1] is described as follows: in vitro rate of dissolution of hydrocortisone in a gastric medium (pH 1.2). The format is physicochemical. The source says:
In this example, the rates of dissolution of hydrocortisone in a gastric medium (at pH 1.2) are compared.
The same lipophilic phase and the same SA/CoSA mixture are used as in Example 8, but in the following proportions: […]

A short description of data set [2]: in vivo test on rats, plasma concentrations after oral administration of indomethacin. The following applies: powder made into a suspension immediately before use. The protocol:
In vivo tests were conducted on rats with indomethacin as active agent.
(§1) The proportions by weight of the different constituents of this mixture are:
An oral administration of indomethacin is first carried out according to the above composition.
A second series of tests consists in administering indomethacin orally in the form of powder made into a suspension immediately before use.

The nature of data set [3]: in vitro dissolution of indomethacin in a gastric medium at pH 1.2. In kind it is physicochemical. The following applies: gastric medium pH 1.2. As for the experimental part: In all the examples, the complement by weight to […] of the composition is, in actual fact, represented by an anti-inflammatory active principle, namely indomethacin in Examples 1 to 8, and 12, hydrocortisone in Example 9 and diclofenac sodium in Example 10. In examples 1-12, the hydrophilic phase is represented by water which is known to be a simulation of the digestive milieu for in vitro tests.
By way of comparison, when the pure active agent (indomethacin) is tested, at best only 5% of this active agent is dissolved in one hour; and still by way of comparison, with hard gelatin capsules of this active principle which are currently on the market, only 4.7% of active agent dissolved is obtained at the end of one hour.
In this example, the rates of dissolution in vitro in a gastric medium (at pH =1.2), in which indomethacin alone has a rate of dissolution of less than 5% in the same medium, are compared.
as §1
In this example, the same components are used as in the preceding example, with different proportions, namely: […]

Data set [4] is classed as physicochemical. The following applies: gastric medium pH 1.2. The source says:
The proportions by weight of the different constituents of this mixture are: […]

Where only a bound is given, the exact number is not on record here.

In the case of `C[C@]12CCC(=O)C=C1CC[C@@H]1[C@@H]2[C@@H](O)C[C@@]2(C)[C@H]1CC[C@]2(O)C(=O)CO` [hydrocortisone], in data set [1], the “rate of dissolution in 45 minutes” value is 10%.

Turning to `COc1ccc2c(c1)c(CC(=O)O)c(C)n2C(=O)c1ccc(Cl)cc1` [indomethacin], the kinetics obtained result in data set [2] was “irregular and vary from one animal to another”. The compound also returned a concentration at 1 h in data set [2] (rat, in vivo, one hour) of 1000 to 5000 ng/mL. In data set [2] (rat, in vivo, two hours), this compound had a concentration at 2 h of 1000 to 4000 ng/mL. Moreover, in data set [3] (one hour), the “percentage of the active agent dissolved at the end of one hour” value is recorded as not above 5%. Also, the rate of dissolution result in data set [3] (indomethacin alone, time not stated) is given as “less than 5%”.

For `O=C(O)Cc1ccccc1Nc1c(Cl)cccc1Cl` [diclofenac sodium], the “rate of dissolution in 30 min” value in data set [4] (30 min) was found to be 1%. In data set [4] (powder form), the “solubility in gastric medium (in words)” value is recorded as “almost insoluble”.

Source of the values: patent publication US6312704A, “Orally administrable composition capable of providing enhanced bioavailability when ingested” (Gattefosse, S.A., priority 1993, dated 2001).
